Reference: PubChem BioAssay (NCI)
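Compound exposure: 48 hours, 5 concentrations, 96-well plates. The concentration for full growth arrest is given as TGI.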

Experiments:
Assay in all cases: NCI anticancer screen, dose series, 48 h
[1] = tested on: 786-0 renal
[2] = tested on: A498 renal
[3] = tested on: A549 NSCLC
[4] = tested on: ACHN renal
[5] = tested on: CAKI-1 renal
[6] = tested on: CCRF-CEM leukemia
[7] = tested on: COLO 205 colon
[8] = tested on: DMS 114 small cell lung
[9] = tested on: DMS 273 small cell lung
[10] = tested on: EKVX NSCLC
[11] = tested on: HCC-2998 colon
[12] = tested on: HCT-116 colon
[13] = tested on: HCT-15 colon
[14] = tested on: HL-60(TB) leukemia
[15] = tested on: HOP-18 NSCLC
[16] = tested on: HOP-62 NSCLC
[17] = tested on: HOP-92 NSCLC
[18] = tested on: HT29 colon
[19] = tested on: IGROV1 ovarian
[20] = tested on: K-562 leukemia
[21] = tested on: KM12 colon
[22] = tested on: KM20L2 colon
[23] = tested on: LOX IMVI melanoma
[24] = tested on: LXFL 529 NSCLC
[25] = tested on: M14 melanoma
[26] = tested on: M19-MEL melanoma
[27] = tested on: MALME-3M melanoma
[28] = tested on: MOLT-4 leukemia
[29] = tested on: NCI-H226 lung
[30] = tested on: NCI-H23 lung
[31] = tested on: NCI-H460 lung
[32] = tested on: NCI-H522 lung
[33] = tested on: OVCAR-3 ovarian
[34] = tested on: OVCAR-4 ovarian
[35] = tested on: OVCAR-5 ovarian
[36] = tested on: OVCAR-8 ovarian
[37] = tested on: RPMI-8226 leukemia
[38] = tested on: RXF 393 renal
[39] = tested on: RXF-631 renal
[40] = tested on: SF-268 CNS
[41] = tested on: SF-295 CNS
[42] = tested on: SF-539 CNS
[43] = tested on: SK-MEL-2 melanoma
[44] = tested on: SK-MEL-28 melanoma
[45] = tested on: SK-MEL-5 melanoma
[46] = tested on: SK-OV-3 ovarian
[47] = tested on: SN12C renal
[48] = tested on: SNB-19 CNS
[49] = tested on: SNB-75 CNS
[50] = tested on: SNB-78 CNS
[51] = tested on: SR leukemia
[52] = tested on: SW-620 colon
[53] = tested on: TK-10 renal
[54] = tested on: U251 CNS
[55] = tested on: UACC-257 melanoma
[56] = tested on: UACC-62 melanoma
[57] = tested on: UO-31 renal
[58] = tested on: DLD-1 colon
[59] = tested on: XF 498 CNS

SMILES: COC(=O)C(CC(=O)Nc1ccc(Cl)c(Cl)c1)C(=O)C(=O)Nc1ccc(Cl)c(Cl)c1 (configuration not stated)
- TGI [1]: > 100 µM
- TGI [2]: > 100 µM
- TGI [3]: > 100 µM
- TGI [4]: > 100 µM
- TGI [5]: > 100 µM
- TGI [6]: > 100 µM
- TGI [7]: > 100 µM
- TGI [8]: > 100 µM
- TGI [9]: > 100 µM
- TGI [10]: > 100 µM
- TGI [11]: > 100 µM
- TGI [12]: > 100 µM
- TGI [13]: > 100 µM
- TGI [14]: > 100 µM
- TGI [15]: > 100 µM
- TGI [16]: > 100 µM
- TGI [17]: > 100 µM
- TGI [18]: > 100 µM
- TGI [19]: > 100 µM
- TGI [20]: > 100 µM
- TGI [21]: > 100 µM
- TGI [22]: > 100 µM
- TGI [23]: > 100 µM
- TGI [24]: > 100 µM
- TGI [25]: > 100 µM
- TGI [26]: > 100 µM
- TGI [27]: > 100 µM
- TGI [28]: > 100 µM
- TGI [29]: > 100 µM
- TGI [30]: > 100 µM
- TGI [31]: > 100 µM
- TGI [32]: > 100 µM
- TGI [33]: > 100 µM
- TGI [34]: > 100 µM
- TGI [35]: > 100 µM
- TGI [36]: > 100 µM
- TGI [37]: > 100 µM
- TGI [38]: > 100 µM
- TGI [39]: > 100 µM
- TGI [40]: > 100 µM
- TGI [41]: > 100 µM
- TGI [42]: > 100 µM
- TGI [43]: > 100 µM
- TGI [44]: > 100 µM
- TGI [45]: > 100 µM
- TGI [46]: > 100 µM
- TGI [47]: > 100 µM
- TGI [48]: > 100 µM
- TGI [49]: > 100 µM
- TGI [50]: > 100 µM
- TGI [51]: > 100 µM
- TGI [52]: > 100 µM
- TGI [53]: > 100 µM
- TGI [54]: > 100 µM
- TGI [55]: > 100 µM
- TGI [56]: > 100 µM
- TGI [57]: > 100 µM

SMILES: CC1CC(C)C2OC2(C)C[C@H](C)C(=O)NC(C)C(=O)N(C)[C@H](Cc2c(Br)[nH]c3ccccc23)C(=O)N[C@@H](c2ccc(O)cc2)CC(=O)O1 (some centres not stated)
- TGI [1]: 19.1 µM
- TGI [2]: 1.79 µM
- TGI [3]: > 100 µM
- TGI [4]: 27.2 µM
- TGI [5]: 4.71 µM
- TGI [6]: > 65 µM
- TGI [7]: 0.145 µM
- TGI [58]: > 100 µM
- TGI [8]: 2.63 µM
- TGI [9]: 83.1 µM
- TGI [10]: 75.8 µM
- TGI [11]: 0.505 µM
- TGI [12]: > 33.1 µM
- TGI [13]: > 100 µM
- TGI [14]: 0.783 µM
- TGI [16]: 1.4 µM
- TGI [17]: 0.638 µM
- TGI [19]: 0.683 µM
- TGI [20]: > 77.4 µM
- TGI [21]: > 100 µM
- TGI [22]: > 50.1 µM
- TGI [23]: 1.66 µM
- TGI [24]: 13.3 µM
- TGI [25]: 19.5 µM
- TGI [27]: 14 µM
- TGI [28]: 57.3 µM
- TGI [29]: 2.23 µM
- TGI [30]: > 40.4 µM
- TGI [31]: > 100 µM
- TGI [32]: 0.856 µM
- TGI [33]: 9.61 µM
- TGI [34]: 1.09 µM
- TGI [35]: 18.8 µM
- TGI [36]: > 52.7 µM
- TGI [37]: 5.43 µM
- TGI [38]: 4.81 µM
- TGI [39]: > 100 µM
- TGI [41]: 31.3 µM
- TGI [42]: 0.383 µM
- TGI [43]: 0.876 µM
- TGI [44]: 12.2 µM
- TGI [45]: 17.1 µM
- TGI [46]: 3.04 µM
- TGI [47]: > 100 µM
- TGI [48]: 0.544 µM
- TGI [49]: 2.32 µM
- TGI [50]: 0.763 µM
- TGI [51]: > 100 µM
- TGI [52]: > 90.2 µM
- TGI [53]: 5.44 µM
- TGI [54]: 2.98 µM
- TGI [55]: 13.3 µM
- TGI [56]: 14.4 µM
- TGI [57]: 27.3 µM
- TGI [59]: 4.31 µM
